pIC50, pKd, pKi: −log10 of the molar value. Where “and” joins values, the source holds several entries; their conditions need not be identical. Identical values can stand only once.
Columns and labels:
[1] = tested on: NDM-1 expressing Klebsiella pneumoniae; conditions: mouse infected with NDM-1 expressing Klebsiella pneumoniae; ref 19e, 20; cited from earlier work
NDM-1 [2] = conditions: read-out: IC50 against NDM-1; ref 19e, 20; cited from earlier work
VIM-2 = VIM-2 (Escherichia coli, UniProt Q5U7L7); type: binding; conditions: VIM-2 10 μM, inhibitor 50 μM, approximately 5 min incubation
NDM-1 [3] = target: T1, NDM-1 (Klebsiella pneumoniae, UniProt C7C422); type: binding; conditions: NDM-1 10 μM, inhibitor 50 μM, approximately 5 min incubation
Target sequence in this assay (C7C422 37-270 limits assumed): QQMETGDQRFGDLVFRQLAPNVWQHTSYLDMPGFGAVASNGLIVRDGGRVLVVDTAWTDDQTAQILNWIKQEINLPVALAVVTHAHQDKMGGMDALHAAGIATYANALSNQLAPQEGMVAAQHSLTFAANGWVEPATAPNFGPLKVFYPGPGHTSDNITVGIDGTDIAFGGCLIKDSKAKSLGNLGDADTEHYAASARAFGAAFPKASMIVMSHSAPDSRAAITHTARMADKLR

NDM-1 [4] = target: T1, NDM-1; type: binding; conditions: 5 μM NDM-1, 200 μM inhibitor; native NDM-1 TM = 55.95±0.06 °C
Target sequence in this assay (C7C422 29-270, looked up): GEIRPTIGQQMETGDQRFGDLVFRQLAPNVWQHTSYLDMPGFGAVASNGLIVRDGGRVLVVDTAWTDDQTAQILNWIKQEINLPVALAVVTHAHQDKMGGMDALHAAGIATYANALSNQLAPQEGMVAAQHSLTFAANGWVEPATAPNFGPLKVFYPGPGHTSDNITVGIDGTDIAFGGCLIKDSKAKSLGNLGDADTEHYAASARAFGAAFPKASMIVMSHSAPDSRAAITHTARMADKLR

NDM-1 [5] = target: T1, NDM-1; assay: biochemical; conditions: for Percent Inhibition against NDM-1: meropenem substrate
Target sequence in this assay (C7C422 36-270): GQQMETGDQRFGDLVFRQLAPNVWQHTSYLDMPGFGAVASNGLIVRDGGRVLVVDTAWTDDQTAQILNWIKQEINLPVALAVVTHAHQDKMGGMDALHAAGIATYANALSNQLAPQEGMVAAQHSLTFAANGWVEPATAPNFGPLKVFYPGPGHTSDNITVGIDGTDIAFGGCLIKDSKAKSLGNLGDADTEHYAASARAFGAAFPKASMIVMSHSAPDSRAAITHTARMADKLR

[6] = read-out: Kd for Zn(II) ions; cited from earlier work
[7] = read-out: Percent Inhibition against NDM-1

**Q.** What does the source list for `N[C@H](CN[C@H](CN[C@@H](CC(=O)O)C(=O)O)C(=O)O)C(=O)O` [AMA, Aspergillomarasmine A]?
**A.** ability to restore meropenem activity in vivo [1]: restore meropenem activity; pIC50 (NDM-1 [2]): 5.15 to 5.40

**Q.** With `CN(CC(=O)O)CC(=O)O` [Compound 1] as the compound, how does the “Complex observed by native ESI-MS” value (VIM-2) read?
**A.** Its value is 2Zn: VIM-2:1.

**Q.** And the “Complex observed by native ESI-MS” value (NDM-1 [3])?
**A.** The value was 2Zn: NDM-1:1.

**Q.** And the “∆Tm” value (NDM-1 [4])?
**A.** The value was 1.9±0.2 °C.

**Q.** What about the “Percent Inhibition against NDM-1” value (NDM-1 [5]; compound at 200 μM) of the same compound?
**A.** The value was 80%.

**Q.** What about the “Percent Inhibition against NDM-1” value (NDM-1 [5]; compound at 250 μM) of the same compound?
**A.** The value was 90%.

**Q.** With `O=C(O)CN(CC(=O)O)Cc1ccccc1` [Compound 11] as the compound, how does the “Percent Inhibition against NDM-1” value (NDM-1 [5]; compound at 250 μM) read?
**A.** Its value is 65%.

**Q.** With `CN(CCC(=O)O)CC(=O)O` [Compound 13a, 3-((Carboxymethyl)(methyl)amino)propanoic acid] as the compound, how does the “Percent Inhibition against NDM-1” value (NDM-1 [5]; compound at 250 μM) read?
**A.** The value was “complete loss of activity”.

**Q.** With `O=C(O)CCN(CC(=O)O)Cc1ccccc1` [Compound 13b, 3-(Benzyl(carboxymethyl)amino)propanoic acid] as the compound, how does the “Percent Inhibition against NDM-1” value (NDM-1 [5]; compound at 250 μM) read?
**A.** Its value is “complete loss of activity”.

**Q.** Which “Percent Inhibition against NDM-1” value (NDM-1 [5]; compound at 250 μM) does the source give for `O=C(O)CN(CCP(=O)(O)O)Cc1ccccc1` [Compound 15, N-Benzyl-N-(2-phosphonoethyl)glycine] here?
**A.** The value was “no inhibition”.

**Q.** Which “Percent Inhibition against NDM-1” value (NDM-1 [5]; compound at 250 μM) does the source give for `O=C(O)CN(Cc1ccccc1)Cc1nnn[nH]1` [Compound 17, N-((1H-tetrazol-5-yl)methyl)-N-benzylglycine] here?
**A.** Its value is “comparable to that of 11”.

**Q.** With `O=C(O)CN(CCc1ccccc1)CC(=O)O` [Compound 21a, 2,2’-(Phenethylazanediyl)diacetic acid] as the compound, how does the inhibition at 250 µM (NDM-1 [5]; [7]) read?
**A.** Its inhibition at 250 µM is 56 to 76%.

**Q.** With `O=C(O)CN(CC(=O)O)Cc1ccc(-c2ccccc2)cc1` [Compound 21b, 2,2’-(([1,1’-Biphenyl]-4-ylmethyl)azanediyl)diacetic acid] as the compound, how does the inhibition at 250 µM (NDM-1 [5]; [7]) read?
**A.** Its inhibition at 250 µM is 56 to 76%.

**Q.** With `O=C(O)CN(CC(=O)O)Cc1cccc(-c2ccccc2)c1` [Compound 21c, 2,2’-(([1,1’-Biphenyl]-3-ylmethyl)azanediyl)diacetic acid] as the compound, how does the inhibition at 250 µM (NDM-1 [5]; [7]) read?
**A.** Its inhibition at 250 µM is 56 to 76%.

**Q.** With `O=C(O)CN(CC(=O)O)Cc1ccsc1` [Compound 21h, 2,2’-((Thiophen-3-ylmethyl)azanediyl)diacetic acid] as the compound, how does the inhibition at 250 µM (NDM-1 [5]; [7]) read?
**A.** The inhibition at 250 µM was 64%.

**Q.** With `O=C(O)CN(CC(=O)O)Cc1ccoc1` [Compound 21i, 2,2’-((Furan-3-ylmethyl)azanediyl)diacetic acid] as the compound, how does the “∆Tm” value (NDM-1 [4]) read?
**A.** Its value is 3.4±0.3 °C.

**Q.** What about the inhibition at 250 µM (NDM-1 [5]; [7]) of the same compound?
**A.** Its inhibition at 250 µM is roughly 99%.

**Q.** With `O=C(O)CN(CC(=O)O)S(=O)(=O)c1ccccc1` [Compound 21j, 2,2’-((Phenylsulfonyl)azanediyl)diacetic acid] as the compound, how does the “Percent Inhibition against NDM-1” value (NDM-1 [5]; compound at 250 μM) read?
**A.** Its value is “complete loss of activity”.

**Q.** With `O=C(O)CN(CC(=O)O)S(=O)(=O)Cc1ccccc1` [Compound 21k, 2,2’-((Benzylsulfonyl)azanediyl)diacetic acid] as the compound, how does the “Percent Inhibition against NDM-1” value (NDM-1 [5]; compound at 250 μM) read?
**A.** The value was “complete loss of activity”.

**Q.** With `O=C(O)CN(CC(=O)O)S(=O)(=O)c1cccs1` [Compound 21l, 2,2’-((Thiophen-2-ylsulfonyl)azanediyl)diacetic acid] as the compound, how does the “Percent Inhibition against NDM-1” value (NDM-1 [5]; compound at 250 μM) read?
**A.** The value was ~ 20%.

**Q.** For `O=C(O)CN(CC(=O)O)S(=O)(=O)c1cc2ccccc2s1` [Compound 21m, 2,2’-((Benzo[b]thiophen-2-ylsulfonyl)azanediyl)diacetic acid], which “Percent Inhibition against NDM-1” value (NDM-1 [5]; compound at 250 μM) is on record?
**A.** The value was ~ 20%.

**Q.** Which “∆Tm” value (NDM-1 [4]) does the source give for `O=C(O)CN(CC(=O)O)Cc1cccs1` [Compound 23a, 2,2’-((Thiophen-2-ylmethyl)azanediyl)diacetic acid] here?
**A.** The value was 3.1±0.1 °C.

**Q.** With `O=C(O)CN(CC(=O)O)Cc1ccco1` [Compound 23b, 2,2’-((Furan-2-ylmethyl)azanediyl)diacetic acid] as the compound, how does the “∆Tm” value (NDM-1 [4]) read?
**A.** The value was 1.6±0.4 °C.

**Q.** With `Cc1ccc(CN(CC(=O)O)CC(=O)O)s1` [Compound 23c, 2,2’-(((5-Methylthiophen-2-yl)methyl)azanediyl)diacetic acid] as the compound, how does the “Complex observed by native ESI-MS” value (VIM-2) read?
**A.** The value was 2Zn: VIM-2:23c.

**Q.** And the “Complex observed by native ESI-MS” value (NDM-1 [3])?
**A.** Its value is 2Zn: NDM-1:23c.

**Q.** What does the source list for `Cc1ccc(CN(CC(=O)O)CC(=O)O)o1` [Compound 23d, 2,2’-(((5-Methylfuran-2-yl)methyl)azanediyl)diacetic acid]?
**A.** Complex observed by native ESI-MS (VIM-2): 2Zn: VIM-2:23d; Complex observed by native ESI-MS (NDM-1 [3]): 2Zn: NDM-1:23d; ∆Tm (NDM-1 [4]): 3.4±0.2 °C

**Q.** What does the source list for `O=C(O)CN(CCc1cccs1)CC(=O)O` [Compound 23e, 2,2’-((2-(Thiophen-2-yl)ethyl)azanediyl)diacetic acid]?
**A.** Complex observed by native ESI-MS (VIM-2): 2Zn: VIM-2:23e; Complex observed by native ESI-MS (NDM-1 [3]): 2Zn: NDM-1:23e; ∆Tm (NDM-1 [4]): 1.7±0.2 °C

**Q.** Which results are given for `O=C(O)CN(CCc1ccco1)CC(=O)O` [Compound 23f, 2,2’-((2-(Furan-2-yl)ethyl)azanediyl)diacetic acid]?
**A.** Complex observed by native ESI-MS (VIM-2): 2Zn: VIM-2:23f; Complex observed by native ESI-MS (NDM-1 [3]): 2Zn: NDM-1:23f; ∆Tm (NDM-1 [4]): 1.5±0.1 °C; pKi (NDM-1 [5]): 5.59; fold improvement in inhibitory activity (NDM-1 [5]; ethyl-linker (23f) versus methyl-linker (23b)): 2.5 fold

**Q.** For `O=C(O)CN(CC(=O)O)Cc1ccc(Br)s1` [Compound 23g, 2,2’-(((5-Bromothiophen-2-yl)methyl)azanediyl)diacetic acid], which “∆Tm” value (NDM-1 [4]) is on record?
**A.** Its value is 3.0±0.3 °C.

**Q.** Which results are given for `O=C(O)c1cccc(C(=O)O)n1` [DPA, dipicolinic acid, reference compound]?
**A.** Complex observed by native ESI-MS (VIM-2): 0Zn: VIM-2:DPA; Complex observed by native ESI-MS (NDM-1 [3]): 0Zn: NDM-1 and 1Zn: NDM-1 and 2Zn: NDM-1; ∆Tm (NDM-1 [4]): −14.5±0.2 °C

**Q.** Which “Complex observed by native ESI-MS” value (NDM-1 [3]) does the source give for `O=C(O)CN(CCN(CC(=O)O)CC(=O)O)CC(=O)O` [EDTA, reference compound] here?
**A.** Its value is “metal free NDM-1”.

**Q.** With `O=C(O)CNCC(=O)O` [IDA, Iminodiacetic acid] as the compound, how does the pKd [6] read?
**A.** Its pKd is 4.49.

**Q.** What about the inhibition at 200 µM (NDM-1 [5]; [7]) of the same compound?
**A.** Its inhibition at 200 µM is 48%.

Reference: publication PMC7434514 (ChemMedChem, 2020)
